Measured values published in patent publication US10392404B2, “Compounds and compositions as kinase inhibitors” (NOVARTIS AG, priority 2014, dated 2019).

Columns and labels:
C-RAF = biological target: T1, C-RAF (Homo sapiens, UniProt P04049, Y340E/Y341E); assay: In vitro Raf activity determination (Alpha Screen, biotinylated kinase-dead MEK1 substrate), C-Raf; assay type: biochemical; conditions: c-Raf approximately 4 nM; ATP 1 μM; pre-incubation 60 minutes; reaction 1 hour at room temperature
T1 construct: His tag (implied by nickel chromatography) (cleaved yes); StrepII tag (cleaved yes); made in house; host or cells: Sf9 insect cells (baculovirus), CRAF and h14-3-3 zeta co-expressed; MEK1 substrate from E. coli
T1 sequence (P04049 whole entry Y340E/Y341E): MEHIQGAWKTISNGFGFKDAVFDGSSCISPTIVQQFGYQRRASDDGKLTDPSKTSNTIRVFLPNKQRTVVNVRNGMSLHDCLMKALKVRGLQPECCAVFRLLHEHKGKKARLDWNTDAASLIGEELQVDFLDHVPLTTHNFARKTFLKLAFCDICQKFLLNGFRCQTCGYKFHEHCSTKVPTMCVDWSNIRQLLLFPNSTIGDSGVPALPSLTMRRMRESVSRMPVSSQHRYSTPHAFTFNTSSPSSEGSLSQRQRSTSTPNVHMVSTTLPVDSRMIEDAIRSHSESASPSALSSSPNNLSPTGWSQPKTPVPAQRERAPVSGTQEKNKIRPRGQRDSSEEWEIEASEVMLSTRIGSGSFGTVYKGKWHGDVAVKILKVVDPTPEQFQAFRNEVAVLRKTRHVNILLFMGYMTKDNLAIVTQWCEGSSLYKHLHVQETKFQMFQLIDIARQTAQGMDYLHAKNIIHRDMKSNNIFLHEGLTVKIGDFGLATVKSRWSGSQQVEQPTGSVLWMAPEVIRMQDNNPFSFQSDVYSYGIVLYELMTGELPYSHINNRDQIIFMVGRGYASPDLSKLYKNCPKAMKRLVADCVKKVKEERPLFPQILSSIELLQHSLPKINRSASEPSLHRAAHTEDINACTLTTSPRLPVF
T1 sequence (P63104 whole entry partner): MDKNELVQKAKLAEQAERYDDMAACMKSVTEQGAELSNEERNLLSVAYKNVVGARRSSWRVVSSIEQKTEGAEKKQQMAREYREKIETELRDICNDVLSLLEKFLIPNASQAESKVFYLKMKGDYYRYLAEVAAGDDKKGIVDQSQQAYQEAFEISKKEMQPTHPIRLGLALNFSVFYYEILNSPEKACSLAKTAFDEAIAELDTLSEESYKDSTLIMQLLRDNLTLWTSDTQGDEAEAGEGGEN
Summary of the method: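 Full-length C-Raf carrying Y340E/Y341E, co-expressed with 14-3-3ζ in Sf9 cells, at approximately 4 nM, with approximately 10 nM biotinylated kinase-dead MEK1 (K97R) and 1 μM ATP, pH 7.5. Compound preincubated 60 min, reaction 1 hour at room temperature. Phospho-MEK read by AlphaScreen; IC50 by non-linear regression.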

b-Raf (V600E) = biological target: T2, b-Raf (V600E) (Homo sapiens, UniProt P15056, V600E); assay: In vitro Raf activity determination (Alpha Screen, biotinylated kinase-dead MEK1 substrate), B-Raf; assay type: biochemical; conditions: b-Raf (V600E) approximately 4 pM; ATP 10 μM; pre-incubation 60 minutes; reaction 3 hours at room temperature
T2 construct: made in house
T2 sequence (P15056 whole entry V600E): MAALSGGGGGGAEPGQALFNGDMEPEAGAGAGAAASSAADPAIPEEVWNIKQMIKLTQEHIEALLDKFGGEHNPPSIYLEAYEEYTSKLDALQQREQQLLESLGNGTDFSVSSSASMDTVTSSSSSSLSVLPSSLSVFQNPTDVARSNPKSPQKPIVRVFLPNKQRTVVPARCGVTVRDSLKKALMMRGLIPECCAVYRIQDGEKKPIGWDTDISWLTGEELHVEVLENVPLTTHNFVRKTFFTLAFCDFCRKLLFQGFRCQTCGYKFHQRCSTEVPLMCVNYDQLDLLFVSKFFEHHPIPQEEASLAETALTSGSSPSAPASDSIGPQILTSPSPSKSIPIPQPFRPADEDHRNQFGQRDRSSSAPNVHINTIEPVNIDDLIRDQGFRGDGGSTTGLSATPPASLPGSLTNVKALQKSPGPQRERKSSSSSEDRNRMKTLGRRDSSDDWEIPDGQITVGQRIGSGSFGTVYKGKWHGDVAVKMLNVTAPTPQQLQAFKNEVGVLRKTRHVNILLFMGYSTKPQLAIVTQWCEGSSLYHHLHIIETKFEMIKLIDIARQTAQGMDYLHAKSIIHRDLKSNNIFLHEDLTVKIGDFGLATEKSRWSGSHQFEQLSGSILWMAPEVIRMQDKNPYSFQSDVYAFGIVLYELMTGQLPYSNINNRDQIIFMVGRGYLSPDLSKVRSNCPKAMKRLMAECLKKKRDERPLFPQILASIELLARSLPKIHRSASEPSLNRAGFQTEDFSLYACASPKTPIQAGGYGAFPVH
Summary of the method: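 Activated b-Raf(V600E) (~4 pM) pre-incubated 60 min with compound and biotinylated kinase-dead (K97R) MEK1 (~10 nM), then reacted 3 h at room temperature with 10 μM ATP in 50 mM Tris pH 7.5, 15 mM MgCl2, 0.01% BSA, 1 mM DTT. Phospho-MEK detected by AlphaScreen; IC50 by non-linear regression.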

Row | SMILES | IC50 (C-RAF) | IC50 (b-Raf (V600E))
1 | Cc1ncc(NC(=O)c2cnnc(C3CC3)c2)cc1-c1cnc(N2CC(C)(O)C2)c(C#N)c1 [Example 190, N-(5′-cyano-6′-(3-hydroxy-3-methylazetidin-1-yl)-2-methyl-[3,3′-bipyridin]-5-yl)-6-cyclopropyl-pyridazine-4-carboxamide] | 29.1 nM | 178 nM
2 | CCn1cc(C(=O)Nc2cnc(C)c(-c3cnc(N4CC(C)(O)C4)c(C#N)c3)c2)cc(C(F)(F)F)c1=O [Example 191, N-(5′-cyano-6′-(3-hydroxy-3-methylazetidin-1-yl)-2-methyl-[3,3′-bipyridin]-5-yl)-1-ethyl-6-oxo-5-(trifluoromethyl)-1,6-dihydropyridine-3-carboxamide] | 5.21 nM | 30.6 nM
3 | CCC(F)(F)c1cc(C(=O)Nc2cnc(C)c(-c3cnc(N4CC(C)(O)C4)c(C#N)c3)c2)ccn1 [Example 192, N-(5′-cyano-6′-(3-hydroxy-3-methylazetidin-1-yl)-2-methyl-[3,3′-bipyridin]-5-yl)-2-(1,1-difluoropropyl) isonicotinamide] | 1.15 nM | 5.13 nM
4 | Cc1ncc(NC(=O)c2ccnc(C(C)(C)F)c2)cc1-c1cnc(N2CC(C)(O)C2)c(C#N)c1 [Example 193, N-(5′-cyano-6′-(3-hydroxy-3-methylazetidin-1-yl)-2-methyl-[3,3′-bipyridin]-5-yl)-2-(2-fluoropropan-2-yl)isonicotinamide] | 1.75 nM | 7.91 nM
5 | Cc1ccc(NC(=O)c2cnnc(C(C)(C)F)c2)cc1-c1cnc(N2CC(C)(O)C2)c(C#N)c1 [Example 194, N-(3-(5-cyano-6-(3-hydroxy-3-methylazetidin-1-yl)pyridin-3-yl)-4-methylphenyl)-6-(2-fluoropropan-2-yl)pyridazine-4-carboxamide] | 0.285 nM | 1.53 nM
6 | COCCNc1ncc(-c2cc(NC(=O)c3ccnc(C(F)F)c3)cnc2C)cc1C#N [Example 196, N-(5′-cyano-6′-((2-methoxyethyl)amino)-2-methyl-[3,3′-bipyridin]-5-yl)-2-(difluoromethyl) isonicotinamide] | 2.14 nM | 16.1 nM
7 | COCCNc1ncc(-c2cc(NC(=O)c3ccnc(C4(C#N)CC4)c3)cnc2C)cc1C#N [Example 197, N-(5′-cyano-6′-((2-methoxyethyl)amino)-2-methyl-[3,3′-bipyridin]-5-yl)-2-(1-cyanocyclopropyl) isonicotinamide] | 0.818 nM | 5.23 nM
8 | COCCNc1ncc(-c2cc(NC(=O)c3ccnc(C(C)(C)C#N)c3)cnc2C)cc1C#N [Example 198, N-(5′-cyano-6′-((2-methoxyethyl)amino)-2-methyl-[3,3′-bipyridin]-5-yl)-2-(2-cyanopropan-2-yl)isonicotinamide] | 4.06 nM | 13.4 nM
9 | COCCNc1ncc(-c2cc(NC(=O)c3cccc(C(F)F)c3)cnc2C)cc1C#N [Example 199, N-(5′-cyano-6′-((2-methoxyethyl)amino)-2-methyl-[3,3′-bipyridin]-5-yl)-3-(difluoromethyl) benzamide] | 0.386 nM | 2.62 nM
10 | Cc1ncc(NC(=O)c2cnnc(C3CC3)c2)cc1-c1cnc(NC2CCOCC2)c(C#N)c1 [Example 200, N-(5′-cyano-2-methyl-6′-((tetrahydro-2H-pyran-4-yl)amino)-[3,3′-bipyridin]-5-yl)-6-cyclopropylpyridazine-4-carboxamide] | 2.38 nM | 15.2 nM
11 | COCCNc1ncc(-c2cc(NC(=O)c3cnnc(C(C)(C)C#N)c3)ccc2C)cc1C#N [Example 201, N-(3-(5-cyano-6-((2-methoxyethyl)amino)pyridin-3-yl)-4-methylphenyl)-6-(2-cyanopropan-2-yl)pyridazine-4-carboxamide] | 0.447 nM | 3.04 nM
12 | COCCNc1ncc(-c2cc(NC(=O)c3cnnc(C(C)(C)C#N)c3)cnc2C)cc1C#N [Example 202, N-(5′-cyano-6′-((2-methoxyethyl)amino)-2-methyl-[3,3′-bipyridin]-5-yl)-6-(2-cyanopropan-2-yl)pyridazine-4-carboxamide] | 4.82 nM | 32.6 nM
13 | COCCNc1ncc(-c2cc(NC(=O)c3cnnc(C(F)(F)F)c3)cnc2C)cc1C#N [Example 203, N-(5′-cyano-6′-((2-methoxyethyl)amino)-2-methyl-[3,3′-bipyridin]-5-yl)-6-(trifluoromethyl) pyridazine-4-carboxamide] | 8.17 nM | 48.2 nM
14 | Cc1ccc(NC(=O)c2cnnc(C(C)(C)C#N)c2)cc1-c1cnc(NC2CCOCC2)c(C#N)c1 [Example 204, N-(3-(5-cyano-6-((tetrahydro-2H-pyran-4-yl)amino)pyridin-3-yl)-4-methylphenyl)-6-(2-cyanopropan-2-yl)pyridazine-4-carboxamide] | 0.219 nM | 1.45 nM
15 | Cc1ncc(NC(=O)c2cnnc(C(C)(C)C#N)c2)cc1-c1cnc(NC2CCOCC2)c(C#N)c1 [Example 205, N-(5′-cyano-2-methyl-6′-((tetrahydro-2H-pyran-4-yl)amino)-[3,3′-bipyridin]-5-yl)-6-(2-cyanopropan-2-yl)pyridazine-4-carboxamide] | 1.82 nM | 10.9 nM
16 | Cc1ccc(NC(=O)c2cnnc(C(C)(C)C#N)c2)cc1-c1cnc(N2CCOCC2)c(C#N)c1 [Example 206, N-(3-(5-cyano-6-morpholinopyridin-3-yl)-4-methylphenyl) 6-(2-cyanopropan-2 yl)pyridazine-4-carboxamide] | 0.199 nM | 1.23 nM
17 | Cc1ncc(NC(=O)c2cnnc(C(C)(C)C#N)c2)cc1-c1cnc(N2CCOCC2)c(C#N)c1 [Example 207, N-(5′-cyano-2-methyl-6′-morpholino-[3,3′-bipyridin]-5-yl)-6-(2-cyanopropan-2-yl)pyridazine-4-carboxamide] | 1.35 nM | 6.14 nM
18 | Cc1ccc(NC(=O)c2cnnc(C(F)(F)F)c2)cc1-c1cnc(N2CCOCC2)c(C#N)c1 [Example 208, N-(3-(5-cyano-6-morpholinopyridin-3-yl)-4-methylphenyl)-6-(trifluoromethyl) pyridazine-4-carboxamide] | 0.0967 nM | 0.397 nM
19 | COCCNc1ncc(-c2cc(NC(=O)c3ccnc(C(C)(C)O)c3)ccc2C)cc1C#N [Example 209, N-(3-(5-cyano-6-((2-methoxyethyl)amino)pyridin-3-yl)-4-methylphenyl)-2-(2-hydroxypropan-2-yl)isonicotinamide] | 0.777 nM | 4.17 nM
20 | COCCNc1ncc(-c2cc(NC(=O)c3ccnc(C(C)(C)O)c3)cnc2C)cc1C#N [Example 210, N-(5′-cyano-6′-((2-methoxyethyl)amino)-2-methyl-[3,3′-bipyridin]-5-yl)-2-(2-hydroxypropan-2-yl)isonicotinamide] | 5.97 nM | 36 nM
21 | Cc1ccc(NC(=O)c2cnnc(C(C)(C)C#N)c2)cc1-c1cnc(N2CCNCC2)c(C#N)c1 [Example 211, N-(3-(5-cyano-6-(piperazin-1-yl)pyridin-3-yl)-4-methylphenyl)-6-(2-cyanopropan-2-yl)pyridazine-4-carboxamide] | 0.886 nM | 3.07 nM
22 | Cc1ccc(NC(=O)c2ccnc(C(F)(F)F)c2)cc1-c1cnc(N2CC(C)(O)C2)c(C#N)c1 [Example 212, N-(3-(5-cyano-6-(3-hydroxy-3-methylazetidin-1-yl)pyridin-3-yl)-4-methylphenyl)-2-(trifluoromethyl) isonicotinamide] | 0.32 nM | 1.15 nM
23 | Cc1ccc(NC(=O)c2cnnc(C(F)(F)F)c2)cc1-c1cnc(N2CC(C)(O)C2)c(C#N)c1 [Example 213] | 1.78 nM | 8.79 nM
24 | Cc1ccc(NC(=O)c2cnnc(C(C)(C)C#N)c2)cc1-c1cnc(N2CC(C)(O)C2)c(C#N)c1 [Example 214, N-(3-(5-cyano-6-(3-hydroxy-3-methylazetidin-1-yl)pyridin-3-yl)-4-methylphenyl)-6-(2-cyanopropan-2-yl)pyridazine-4-carboxamide] | 0.741 nM | 4.72 nM
25 | Cc1ccc(NC(=O)c2ccnc(C(C)(C)O)c2)cc1-c1cnc(N2CC(C)(O)C2)c(C#N)c1 [Example 215, N-(3-(5-cyano-6-(3-hydroxy-3-methylazetidin-1-yl)pyridin-3-yl)-4-methylphenyl)-2-(2-hydroxypropan-2-yl)isonicotinamide] | 1.28 nM | 8.05 nM
26 | Cc1ccc(NC(=O)c2ccnc(C(F)F)c2)cc1-c1cnc(N2CC(C)(O)C2)c(C#N)c1 [Example 216, N-(3-(5-cyano-6-(3-hydroxy-3-methylazetidin-1-yl)pyridin-3-yl)-4-methylphenyl)-2-(difluoromethyl) isonicotinamide] | 0.691 nM | 4.73 nM
27 | Cc1ccc(NC(=O)c2ccnc(S(C)(=O)=O)c2)cc1-c1cnc(N2CC(C)(O)C2)c(C#N)c1 [Example 217, N-(3-(5-cyano-6-(3-hydroxy-3-methylazetidin-1-yl)pyridin-3-yl)-4-methylphenyl)-2-(methylsulfonyl) isonicotinamide] | 1.07 nM | 6.78 nM
28 | Cc1ccc(NC(=O)c2cccc(S(C)(=O)=O)c2)cc1-c1cnc(N2CC(C)(O)C2)c(C#N)c1 [Example 218, N-(3-(5-cyano-6-(3-hydroxy-3-methylazetidin-1-yl)pyridin-3-yl)-4-methylphenyl)-3-(methylsulfonyl) benzamide] | 0.617 nM | 3.58 nM
